{"source": "paper PMC8617627", "about": "“Novel DYRK1A Inhibitor Rescues Learning and Memory Deficits in a Mouse Model of Down Syndrome” (Pharmaceuticals, 2021)", "test_in_all_cases": "Kinase profile (33P ATP filter binding)", "type_in_all_cases": "biochemical", "key": {"[1]": {"target": "CHK2 (Homo sapiens, UniProt O96017)", "settings": "read-out: Remaining protein kinase activity"}, "[2]": {"target": "T1, EPH-B1 (Homo sapiens, UniProt P54762)", "T1 sequence (P54762 18-984)": "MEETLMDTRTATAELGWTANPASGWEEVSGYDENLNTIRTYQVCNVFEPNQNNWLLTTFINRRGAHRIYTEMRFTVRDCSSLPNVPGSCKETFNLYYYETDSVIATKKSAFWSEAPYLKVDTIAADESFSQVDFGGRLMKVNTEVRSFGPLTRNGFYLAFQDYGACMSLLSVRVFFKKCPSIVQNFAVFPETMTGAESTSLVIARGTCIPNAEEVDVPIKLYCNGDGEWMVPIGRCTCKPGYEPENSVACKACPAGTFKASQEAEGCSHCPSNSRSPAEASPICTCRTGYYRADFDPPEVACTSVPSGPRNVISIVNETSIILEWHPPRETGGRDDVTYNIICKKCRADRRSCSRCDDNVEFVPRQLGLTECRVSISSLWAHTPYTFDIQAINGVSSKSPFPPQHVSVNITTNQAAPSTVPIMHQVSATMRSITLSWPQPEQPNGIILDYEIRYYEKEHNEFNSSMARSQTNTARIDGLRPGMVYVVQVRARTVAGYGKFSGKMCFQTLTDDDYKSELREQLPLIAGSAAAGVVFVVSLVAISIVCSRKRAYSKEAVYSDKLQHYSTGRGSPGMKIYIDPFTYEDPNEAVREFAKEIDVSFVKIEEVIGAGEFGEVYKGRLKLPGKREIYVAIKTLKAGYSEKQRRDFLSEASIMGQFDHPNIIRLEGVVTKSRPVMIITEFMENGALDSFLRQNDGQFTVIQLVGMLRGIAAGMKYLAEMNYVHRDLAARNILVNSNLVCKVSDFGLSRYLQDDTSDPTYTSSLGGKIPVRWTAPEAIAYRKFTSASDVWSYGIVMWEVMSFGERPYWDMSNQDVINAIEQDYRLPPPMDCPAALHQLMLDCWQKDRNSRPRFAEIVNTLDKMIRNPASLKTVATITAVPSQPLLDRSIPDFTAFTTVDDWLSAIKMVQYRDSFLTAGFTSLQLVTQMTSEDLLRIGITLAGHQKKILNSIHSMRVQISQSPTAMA", "settings": "read-out: Remaining protein kinase activity"}, "[3]": {"target": "HIPK2 (Homo sapiens, UniProt Q9H2X6)", "sequence (Q9H2X6 whole entry)": "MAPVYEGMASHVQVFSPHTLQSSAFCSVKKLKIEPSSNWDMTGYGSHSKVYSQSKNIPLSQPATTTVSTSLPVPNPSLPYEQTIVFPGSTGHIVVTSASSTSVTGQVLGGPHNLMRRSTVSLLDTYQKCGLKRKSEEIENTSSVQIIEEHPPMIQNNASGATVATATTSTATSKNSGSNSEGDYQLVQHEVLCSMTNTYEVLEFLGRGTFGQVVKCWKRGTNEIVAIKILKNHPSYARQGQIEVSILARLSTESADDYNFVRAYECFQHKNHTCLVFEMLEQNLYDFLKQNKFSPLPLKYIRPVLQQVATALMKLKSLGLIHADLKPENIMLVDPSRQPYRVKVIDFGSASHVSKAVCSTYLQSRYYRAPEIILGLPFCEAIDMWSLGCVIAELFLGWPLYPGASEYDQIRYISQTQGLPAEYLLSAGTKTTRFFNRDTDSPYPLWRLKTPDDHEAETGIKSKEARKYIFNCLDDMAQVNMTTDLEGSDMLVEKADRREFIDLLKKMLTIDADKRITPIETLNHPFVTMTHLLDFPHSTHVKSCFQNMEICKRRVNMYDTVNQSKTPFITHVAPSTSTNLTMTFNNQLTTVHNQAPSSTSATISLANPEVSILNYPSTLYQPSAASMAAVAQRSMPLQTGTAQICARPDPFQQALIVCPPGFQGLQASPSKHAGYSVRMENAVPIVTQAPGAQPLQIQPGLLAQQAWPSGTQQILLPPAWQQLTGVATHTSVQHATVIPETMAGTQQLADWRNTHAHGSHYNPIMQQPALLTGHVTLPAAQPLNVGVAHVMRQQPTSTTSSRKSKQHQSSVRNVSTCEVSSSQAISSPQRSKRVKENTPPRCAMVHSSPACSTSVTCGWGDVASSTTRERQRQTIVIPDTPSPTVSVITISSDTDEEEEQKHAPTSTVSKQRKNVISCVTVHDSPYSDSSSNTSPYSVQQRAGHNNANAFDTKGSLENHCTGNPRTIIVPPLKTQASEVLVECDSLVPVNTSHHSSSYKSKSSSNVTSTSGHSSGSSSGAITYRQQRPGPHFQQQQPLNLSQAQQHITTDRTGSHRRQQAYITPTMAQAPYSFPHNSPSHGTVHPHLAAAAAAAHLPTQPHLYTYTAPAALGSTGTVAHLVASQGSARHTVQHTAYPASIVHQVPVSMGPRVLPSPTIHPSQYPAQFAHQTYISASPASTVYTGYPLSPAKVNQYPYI", "settings": "read-out: Remaining protein kinase activity"}, "[4]": {"target": "JNK1 (Homo sapiens, UniProt P45983)", "sequence (P45983 whole entry, species assumed)": "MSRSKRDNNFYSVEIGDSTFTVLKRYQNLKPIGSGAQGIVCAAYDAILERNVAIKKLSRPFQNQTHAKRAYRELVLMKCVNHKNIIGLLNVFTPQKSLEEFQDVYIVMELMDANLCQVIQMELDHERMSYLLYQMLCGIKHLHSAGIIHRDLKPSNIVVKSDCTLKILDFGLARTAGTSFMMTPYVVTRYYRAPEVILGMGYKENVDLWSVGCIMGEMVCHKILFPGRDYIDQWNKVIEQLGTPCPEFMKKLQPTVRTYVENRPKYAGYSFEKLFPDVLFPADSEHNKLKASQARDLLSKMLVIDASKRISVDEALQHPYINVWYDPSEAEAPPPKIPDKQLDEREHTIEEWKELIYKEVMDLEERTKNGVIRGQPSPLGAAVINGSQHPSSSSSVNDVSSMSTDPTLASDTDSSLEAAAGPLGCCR"}, "[5]": {"target": "MEKK1 (Homo sapiens, UniProt Q13233)", "sequence (Q13233 whole entry)": "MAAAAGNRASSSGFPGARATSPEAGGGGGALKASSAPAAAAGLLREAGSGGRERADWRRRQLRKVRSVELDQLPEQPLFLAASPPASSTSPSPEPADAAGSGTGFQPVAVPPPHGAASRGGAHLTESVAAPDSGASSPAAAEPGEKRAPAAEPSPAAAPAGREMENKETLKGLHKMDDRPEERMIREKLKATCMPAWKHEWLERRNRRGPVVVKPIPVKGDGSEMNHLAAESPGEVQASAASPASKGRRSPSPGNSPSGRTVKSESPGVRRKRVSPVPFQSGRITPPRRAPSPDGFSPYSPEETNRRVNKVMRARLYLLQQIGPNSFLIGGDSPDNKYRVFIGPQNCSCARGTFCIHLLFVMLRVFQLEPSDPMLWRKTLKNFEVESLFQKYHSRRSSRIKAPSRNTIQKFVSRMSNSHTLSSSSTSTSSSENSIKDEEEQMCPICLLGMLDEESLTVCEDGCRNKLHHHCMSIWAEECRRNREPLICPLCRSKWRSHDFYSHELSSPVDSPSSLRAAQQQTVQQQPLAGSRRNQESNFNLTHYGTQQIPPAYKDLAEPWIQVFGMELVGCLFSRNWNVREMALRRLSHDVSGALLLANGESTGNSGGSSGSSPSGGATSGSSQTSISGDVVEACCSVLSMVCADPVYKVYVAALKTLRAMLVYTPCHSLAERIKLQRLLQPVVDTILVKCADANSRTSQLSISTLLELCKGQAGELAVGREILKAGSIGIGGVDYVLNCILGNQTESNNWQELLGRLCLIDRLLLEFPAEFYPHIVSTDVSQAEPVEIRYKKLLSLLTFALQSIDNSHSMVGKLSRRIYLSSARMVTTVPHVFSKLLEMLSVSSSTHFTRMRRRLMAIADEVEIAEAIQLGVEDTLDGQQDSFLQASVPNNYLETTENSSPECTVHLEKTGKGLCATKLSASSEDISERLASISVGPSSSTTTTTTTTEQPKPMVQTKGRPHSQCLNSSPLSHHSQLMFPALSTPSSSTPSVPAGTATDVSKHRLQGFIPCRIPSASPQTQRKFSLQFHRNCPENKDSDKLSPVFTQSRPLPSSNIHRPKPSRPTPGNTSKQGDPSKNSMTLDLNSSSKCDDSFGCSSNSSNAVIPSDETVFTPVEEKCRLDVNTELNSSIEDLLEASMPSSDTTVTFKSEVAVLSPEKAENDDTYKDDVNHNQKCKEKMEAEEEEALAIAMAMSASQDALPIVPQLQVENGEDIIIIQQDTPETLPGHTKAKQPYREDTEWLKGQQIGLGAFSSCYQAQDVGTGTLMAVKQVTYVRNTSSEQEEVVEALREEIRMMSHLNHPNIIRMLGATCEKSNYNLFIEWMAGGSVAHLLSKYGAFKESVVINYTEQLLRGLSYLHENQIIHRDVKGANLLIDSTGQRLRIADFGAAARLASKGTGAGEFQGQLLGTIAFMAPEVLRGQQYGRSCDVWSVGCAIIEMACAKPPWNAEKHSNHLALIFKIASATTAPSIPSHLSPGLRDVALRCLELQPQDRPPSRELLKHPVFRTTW", "settings": "read-out: Remaining protein kinase activity"}, "[6]": {"target": "ROCK 2 (Homo sapiens, UniProt O75116)", "sequence (O75116 whole entry, species assumed)": "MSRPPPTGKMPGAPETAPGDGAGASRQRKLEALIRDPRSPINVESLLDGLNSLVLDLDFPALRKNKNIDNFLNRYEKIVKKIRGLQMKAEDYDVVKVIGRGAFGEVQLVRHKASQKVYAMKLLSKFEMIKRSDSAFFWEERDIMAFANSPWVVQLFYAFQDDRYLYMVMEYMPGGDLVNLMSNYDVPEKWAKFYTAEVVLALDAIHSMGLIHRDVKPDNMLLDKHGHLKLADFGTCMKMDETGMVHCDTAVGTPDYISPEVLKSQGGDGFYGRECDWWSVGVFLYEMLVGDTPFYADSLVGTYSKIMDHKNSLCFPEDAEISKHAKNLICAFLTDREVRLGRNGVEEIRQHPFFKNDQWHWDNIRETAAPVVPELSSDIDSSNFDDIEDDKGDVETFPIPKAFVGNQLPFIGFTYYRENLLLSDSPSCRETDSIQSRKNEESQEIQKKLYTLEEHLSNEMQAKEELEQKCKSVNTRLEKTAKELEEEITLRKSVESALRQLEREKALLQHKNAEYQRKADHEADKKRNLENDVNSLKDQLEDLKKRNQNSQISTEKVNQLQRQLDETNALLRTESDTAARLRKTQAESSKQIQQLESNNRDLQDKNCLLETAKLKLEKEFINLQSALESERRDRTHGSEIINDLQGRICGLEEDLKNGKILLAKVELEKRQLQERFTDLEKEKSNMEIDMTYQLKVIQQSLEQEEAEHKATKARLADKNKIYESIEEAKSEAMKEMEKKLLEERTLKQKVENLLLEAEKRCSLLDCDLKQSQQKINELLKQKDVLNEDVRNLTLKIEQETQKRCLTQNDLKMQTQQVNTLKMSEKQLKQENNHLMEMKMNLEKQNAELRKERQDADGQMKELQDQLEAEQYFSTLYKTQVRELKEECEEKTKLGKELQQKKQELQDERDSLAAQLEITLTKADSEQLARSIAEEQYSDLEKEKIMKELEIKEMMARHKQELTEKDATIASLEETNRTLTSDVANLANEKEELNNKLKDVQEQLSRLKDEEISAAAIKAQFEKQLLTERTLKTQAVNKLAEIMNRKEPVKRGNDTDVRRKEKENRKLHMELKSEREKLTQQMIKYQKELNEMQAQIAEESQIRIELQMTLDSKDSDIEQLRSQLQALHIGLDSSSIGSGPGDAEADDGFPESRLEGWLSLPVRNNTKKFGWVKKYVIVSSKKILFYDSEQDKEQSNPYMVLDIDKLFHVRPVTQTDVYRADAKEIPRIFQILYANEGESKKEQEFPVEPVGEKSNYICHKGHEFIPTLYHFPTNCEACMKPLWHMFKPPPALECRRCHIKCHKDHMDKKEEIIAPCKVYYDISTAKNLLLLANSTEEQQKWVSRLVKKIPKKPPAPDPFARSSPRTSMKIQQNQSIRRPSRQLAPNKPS", "settings": "read-out: Remaining protein kinase activity"}, "[7]": {"target": "STK33 (Homo sapiens, UniProt Q9BYT3)", "sequence (Q9BYT3 whole entry)": "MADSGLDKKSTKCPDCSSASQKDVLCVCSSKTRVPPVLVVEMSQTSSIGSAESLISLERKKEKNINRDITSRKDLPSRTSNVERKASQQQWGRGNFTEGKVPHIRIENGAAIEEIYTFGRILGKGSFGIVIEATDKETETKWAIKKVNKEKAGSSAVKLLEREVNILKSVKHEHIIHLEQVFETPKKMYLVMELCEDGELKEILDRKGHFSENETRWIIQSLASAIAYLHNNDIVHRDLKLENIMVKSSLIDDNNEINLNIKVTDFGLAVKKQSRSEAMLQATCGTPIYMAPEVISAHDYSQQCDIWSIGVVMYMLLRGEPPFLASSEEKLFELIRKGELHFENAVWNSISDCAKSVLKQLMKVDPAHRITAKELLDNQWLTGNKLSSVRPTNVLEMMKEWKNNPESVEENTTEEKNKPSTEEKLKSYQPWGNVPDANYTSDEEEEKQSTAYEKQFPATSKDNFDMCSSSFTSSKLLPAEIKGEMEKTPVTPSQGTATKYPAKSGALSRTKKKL", "settings": "read-out: Remaining protein kinase activity"}, "[8]": {"target": "T2, TBK1 (Homo sapiens, UniProt Q9UHD2)", "T2 sequence (Q9UHD2 1-729)": "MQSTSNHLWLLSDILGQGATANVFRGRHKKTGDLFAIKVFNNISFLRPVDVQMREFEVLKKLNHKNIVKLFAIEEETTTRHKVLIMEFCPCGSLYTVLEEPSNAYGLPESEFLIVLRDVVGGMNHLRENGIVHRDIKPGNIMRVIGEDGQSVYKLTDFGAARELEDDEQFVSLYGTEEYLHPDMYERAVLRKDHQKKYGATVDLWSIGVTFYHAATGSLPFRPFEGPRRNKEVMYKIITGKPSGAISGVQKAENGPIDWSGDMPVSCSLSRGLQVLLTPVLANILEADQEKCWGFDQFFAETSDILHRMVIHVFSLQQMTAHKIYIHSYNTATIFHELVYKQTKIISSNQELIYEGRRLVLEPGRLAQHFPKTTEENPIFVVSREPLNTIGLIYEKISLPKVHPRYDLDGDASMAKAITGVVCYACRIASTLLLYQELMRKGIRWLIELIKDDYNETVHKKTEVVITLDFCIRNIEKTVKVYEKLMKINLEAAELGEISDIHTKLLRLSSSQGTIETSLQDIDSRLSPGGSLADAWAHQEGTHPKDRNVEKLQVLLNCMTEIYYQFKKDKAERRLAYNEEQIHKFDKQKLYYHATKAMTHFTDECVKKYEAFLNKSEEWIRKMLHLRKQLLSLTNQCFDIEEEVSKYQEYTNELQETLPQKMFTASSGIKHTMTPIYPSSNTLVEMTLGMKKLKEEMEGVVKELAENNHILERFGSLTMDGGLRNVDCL", "settings": "read-out: Remaining protein kinase activity"}, "[9]": {"target": "T3, p38d MAPK (Homo sapiens, UniProt O15264)", "T3 sequence (O15264 1-365)": "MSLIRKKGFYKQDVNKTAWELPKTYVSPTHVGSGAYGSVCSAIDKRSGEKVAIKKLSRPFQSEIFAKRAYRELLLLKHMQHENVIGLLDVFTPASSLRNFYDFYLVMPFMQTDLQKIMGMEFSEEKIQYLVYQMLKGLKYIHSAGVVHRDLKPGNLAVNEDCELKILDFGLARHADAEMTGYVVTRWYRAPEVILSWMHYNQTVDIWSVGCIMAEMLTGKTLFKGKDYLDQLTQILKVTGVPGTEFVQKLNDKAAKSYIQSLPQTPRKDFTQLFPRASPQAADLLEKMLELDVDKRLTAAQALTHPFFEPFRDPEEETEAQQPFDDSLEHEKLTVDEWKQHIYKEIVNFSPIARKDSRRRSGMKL", "settings": "read-out: Remaining protein kinase activity"}}, "note": "Like-named read-outs stand apart in the source and are kept apart here.", "data": [{"smiles": "COc1ccc2sc(-c3cncc(NC(C)=O)c3)nc2c1", "note": "[PST-001, N-(5-(5-Methoxybenzo[d]thiazol-2-yl)pyridin-3-yl)acetamide]", "values": [{"measurement": "remaining activity at 1 µM", "setting": "[1]", "value": 105, "unit": "%"}, {"measurement": "remaining activity at 100 µM", "setting": "[1]", "value": 85, "unit": "%"}, {"measurement": "remaining activity at 1 µM", "setting": "[2]", "value": 117, "unit": "%"}, {"measurement": "remaining activity at 100 µM", "setting": "[2]", "value": 108, "unit": "%"}, {"measurement": "remaining activity at 1 µM", "setting": "[3]", "value": 90, "unit": "%"}, {"measurement": "remaining activity at 100 µM", "setting": "[3]", "value": 77, "unit": "%"}, {"measurement": "Remaining protein kinase activity", "setting": "[4]; 1 μM", "value": 113, "unit": "%"}, {"measurement": "Remaining protein kinase activity", "setting": "[4]; 100 μM", "value": 130, "unit": "%"}, {"measurement": "remaining activity at 1 µM", "setting": "[5]", "value": 126, "unit": "%"}, {"measurement": "remaining activity at 100 µM", "setting": "[5]", "value": 109, "unit": "%"}, {"measurement": "remaining activity at 1 µM", "setting": "[6]", "value": 110, "unit": "%"}, {"measurement": "remaining activity at 100 µM", "setting": "[6]", "value": 64, "unit": "%"}, {"measurement": "remaining activity at 1 µM", "setting": "[7]", "value": 113, "unit": "%"}, {"measurement": "remaining activity at 100 µM", "setting": "[7]", "value": 112, "unit": "%"}, {"measurement": "remaining activity at 1 µM", "setting": "[8]", "value": 119, "unit": "%"}, {"measurement": "remaining activity at 100 µM", "setting": "[8]", "value": 104, "unit": "%"}, {"measurement": "remaining activity at 1 µM", "setting": "[9]", "value": 115, "unit": "%"}, {"measurement": "remaining activity at 100 µM", "setting": "[9]", "value": 112, "unit": "%"}]}, {"smiles": "COc1ccc2sc(-c3cncc(N)c3)nc2c1", "note": "[compound 1, 5-(5-Methoxybenzo[d]thiazol-2-yl)pyridin-3-amine]", "values": [{"measurement": "remaining activity at 1 µM", "setting": "[1]; CHK2, 1 μM", "value": 114, "unit": "%"}, {"measurement": "remaining activity at 100 µM", "setting": "[1]; CHK2, 100 μM", "value": 52, "unit": "%"}, {"measurement": "remaining activity at 1 µM", "setting": "[2]; EPH-B1, 1 μM", "value": 122, "unit": "%"}, {"measurement": "remaining activity at 100 µM", "setting": "[2]; EPH-B1, 100 μM", "value": 91, "unit": "%"}, {"measurement": "remaining activity at 1 µM", "setting": "[3]; HIPK2, 1 μM", "value": 79, "unit": "%"}, {"measurement": "remaining activity at 100 µM", "setting": "[3]; HIPK2, 100 μM", "value": 10, "unit": "%"}, {"measurement": "Remaining protein kinase activity", "setting": "[4]; 1 μM", "value": 112, "unit": "%"}, {"measurement": "Remaining protein kinase activity", "setting": "[4]; 100 μM", "value": 94, "unit": "%"}, {"measurement": "remaining activity at 1 µM", "setting": "[5]; MEKK1, 1 μM", "value": 132, "unit": "%"}, {"measurement": "remaining activity at 100 µM", "setting": "[5]; MEKK1, 100 μM", "value": 107, "unit": "%"}, {"measurement": "remaining activity at 1 µM", "setting": "[6]; ROCK 2, 1 μM", "value": 108, "unit": "%"}, {"measurement": "remaining activity at 100 µM", "setting": "[6]; ROCK 2, 100 μM", "value": 5, "unit": "%"}, {"measurement": "remaining activity at 1 µM", "setting": "[7]; STK33, 1 μM", "value": 111, "unit": "%"}, {"measurement": "remaining activity at 100 µM", "setting": "[7]; STK33, 100 μM", "value": 57, "unit": "%"}, {"measurement": "remaining activity at 1 µM", "setting": "[8]; TBK1, 1 μM", "value": 105, "unit": "%"}, {"measurement": "remaining activity at 100 µM", "setting": "[8]; TBK1, 100 μM", "value": 60, "unit": "%"}, {"measurement": "remaining activity at 1 µM", "setting": "[9]; p38d MAPK, 1 μM", "value": 116, "unit": "%"}, {"measurement": "remaining activity at 100 µM", "setting": "[9]; p38d MAPK, 100 μM", "value": 95, "unit": "%"}]}]}
